Experimental data from ChEMBL document CHEMBL1201862, “PubChem BioAssay data set” (2004).
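Step 1: Grow cells in 96-well plates. Step 2: Expose to compound for 48 hours at 5 concentrations. Step 3: Interpolate endpoints linearly; if unreached, use highest concentration. GI50: concentration for 50% inhibition of growth.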 Calls of active or inactive are those of the source. Rule as the data show it: active = GI50 up to about 1.1 µM and inactive = higher. Where a SMILES comes first, the peptide text is derived from it. [ ]: non-standard residue; d: D form. The star is where a group is joined. 2Nal = N[CH](Cc1ccc2ccccc2c1)C(=O)O; Boc = CC(C)(C)OC(=O)*; OBn = c1ccc(CO*)cc1

Tests used:
Experiment in all cases: NCI anticancer screen, dose series, 48 h
A549 = test system: A549
EKVX = test system: EKVX
HCT-15 = test system: HCT-15
HL-60 = test system: HL-60
HOP-62 = test system: HOP-62
KM12 = test system: KM12
LOX IMVI = test system: LOX IMVI
MDA-MB-231 = test system: MDA-MB-231
OVCAR-8 = test system: OVCAR-8
RPMI-8226 = test system: RPMI-8226
SF-268 = test system: SF-268
SF-295 = test system: SF-295
SF-539 = test system: SF-539
SK-MEL-28 = test system: SK-MEL-28
SK-MEL-2 = test system: SK-MEL-2
SK-OV-3 = test system: SK-OV-3
T47D = test system: T47D
U-251 = test system: U-251
UACC-257 = test system: UACC-257
UACC-62 = test system: UACC-62

Row | Compound | GI50 (A549) | GI50 (EKVX) | GI50 (HCT-15) | GI50 (HL-60) | GI50 (HOP-62) | GI50 (KM12) | GI50 (LOX IMVI) | GI50 (MDA-MB-231) | GI50 (OVCAR-8) | GI50 (RPMI-8226) | GI50 (SF-268) | GI50 (SF-295) | GI50 (SF-539) | GI50 (SK-MEL-28) | GI50 (SK-MEL-2) | GI50 (SK-OV-3) | GI50 (T47D) | GI50 (U-251) | GI50 (UACC-257) | GI50 (UACC-62)
1 | CC(C)CC(NC(=O)C(Cc1ccccc1)NC(=O)C(Cc1ccccc1)NC(=O)OC(C)(C)C)C(=O)OCc1ccccc1 (stereo not drawn) (Boc-Phe-Phe-Leu-OBn; configuration not given here) | > 100 µM (inactive) | > 100 µM (inactive) | > 100 µM | > 100 µM (inactive) | > 100 µM (inactive) | > 100 µM (inactive) | > 100 µM (inactive) | > 100 µM (inactive) | > 100 µM (inactive) | > 100 µM (inactive) | > 100 µM (inactive) | > 100 µM (inactive) | > 100 µM (inactive) | > 100 µM (inactive) | > 100 µM (inactive) | > 100 µM (inactive) | > 100 µM (inactive) | > 100 µM (inactive) | > 100 µM (inactive) | > 100 µM (inactive)
2 | CC(NC(=O)C(N)Cc1ccccc1)C(=O)NC(Cc1ccc(O)cc1)C(=O)NC(Cc1c[nH]c2ccccc12)C(=O)NC(CCCCN)C(=O)NC(C(=O)NC(C)C(=O)NC(Cc1ccc2ccccc2c1)C(N)=O)C(C)C (stereo not given) (H-FAYWKVA[2Nal]-NH2; configuration not given here) | > 12.5 µM (inactive) | > 12.5 µM (inactive) | > 12.5 µM | > 12.5 µM (inactive) | > 12.5 µM (inactive) | > 12.5 µM (inactive) | > 12.5 µM (inactive) | > 12.5 µM (inactive) | > 12.5 µM (inactive) | > 12.5 µM (inactive) | > 12.5 µM (inactive) | > 12.5 µM (inactive) | > 12.5 µM (inactive) | > 12.5 µM (inactive) | > 12.5 µM (inactive) | > 12.5 µM (inactive) | > 12.5 µM (inactive) | > 12.5 µM (inactive) | > 12.5 µM (inactive) | > 12.5 µM (inactive)
3 | O=C(O)CCC(=O)C(=O)O [ALPHA-KETOGLUTARIC ACID] | > 100 µM (inactive) | > 100 µM (inactive) | > 100 µM | > 100 µM (inactive) | > 100 µM (inactive) | > 100 µM (inactive) | > 100 µM (inactive) | > 100 µM (inactive) | > 100 µM (inactive) | > 100 µM (inactive) | > 100 µM (inactive) | > 100 µM (inactive) | > 100 µM (inactive) | > 100 µM (inactive) | > 100 µM (inactive) | > 100 µM (inactive) | > 100 µM (inactive) | > 100 µM (inactive) | > 100 µM (inactive) | > 100 µM (inactive)
4 | CC[C@]12CCCN3CCc4c(n(c5ccccc45)C(=O)C1)[C@@H]32 [VINBURNINE] | 7.5 µM (inactive) | 46.9 µM (inactive) | 4.15 µM | 2.65 µM (inactive) | 4.76 µM (inactive) | 4.54 µM (inactive) | 10 µM (inactive) | 9.35 µM (inactive) | 15.5 µM (inactive) | 4.56 µM (inactive) | 11.6 µM (inactive) | 3.58 µM (inactive) | 7.91 µM (inactive) | > 36.5 µM (inactive) | 4.92 µM (inactive) | 10.8 µM (inactive) | 11.5 µM (inactive) | 4.88 µM (inactive) | 15.2 µM (inactive) | 5.82 µM (inactive)
